The target of one data set is T1, His6-GSK-3β (Homo sapiens, UniProt P49841).
T1 construct: made in house; host or cells: Sf21 insect cells (baculovirus)
The data set is described as follows: Inhibition of His6-GSK-3β kinase activity (ELISA-based format, time-resolved fluorescence readout). The format is biochemical. To be noted: read-out: GSK3β IC50. The gist of the method:
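N-terminal His6-tagged full-length human GSK-3β (aa 2-419) expressed in Sf21 cells, 200 ng/ml, phosphorylating plate-coated GST-Rb with 20 μM ATP in pH 7.2 HEPES buffer, 30 min at 37° C. Phospho-Rb (Ser-780) detected by antibody plus Eu-labelled secondary, time-resolved fluorescence; IC50 from curves.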

The next data set addresses T2, CDK5/GST-p25 (Homo sapiens, UniProt Q00535).
T2 construct: The final construct, encoding for full-length human CDK5; made in house; host or cells: Sf21 insect cells (baculovirus co-infection)
The data set is described as follows: Inhibition of CDK5/GST-p25 kinase activity (ELISA with time-resolved fluorescence readout). The format is biochemical. A digest of the protocol: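 Sf21-coexpressed full-length human CDK5 with GST-p25 (p35 aa 108-307), glutathione-purified, at 2 ng/ml was reacted for 20 min at 37 °C on plate-coated GST-Rb(773-928). Buffer was 20 mM HEPES pH 7.2, 10 µM ATP, 10 mM MgCl2 and 2.5% DMSO. Phospho-Rb Ser-780 was detected by Eu-labelled antibody TRF, and IC50 curves were fitted.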

One may read the IC50 as the point on the concentration scale where inhibition reaches its midpoint. As usually defined, the melting point is the temperature, or range, at which the solid turns liquid. As usually defined, the inhibition is how much of the control response was suppressed. The low end stands for a response near the control, the high end for a response far below the control.

Where two headings read alike, the source gives them in different places. A value given as a limit tells only on which side of the number the result lay.

T1 sequence (P49841 2-419): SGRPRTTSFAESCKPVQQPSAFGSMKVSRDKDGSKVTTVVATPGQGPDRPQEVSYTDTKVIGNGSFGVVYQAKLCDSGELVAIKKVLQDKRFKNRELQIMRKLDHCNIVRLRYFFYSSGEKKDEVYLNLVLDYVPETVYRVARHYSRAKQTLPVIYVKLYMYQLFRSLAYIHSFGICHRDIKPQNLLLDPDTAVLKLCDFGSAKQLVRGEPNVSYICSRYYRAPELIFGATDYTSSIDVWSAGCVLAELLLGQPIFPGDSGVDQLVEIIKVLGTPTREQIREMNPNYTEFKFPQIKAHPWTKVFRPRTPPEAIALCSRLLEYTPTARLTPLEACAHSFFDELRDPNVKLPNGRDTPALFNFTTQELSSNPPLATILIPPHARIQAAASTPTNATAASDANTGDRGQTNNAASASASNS
T2 sequence (Q00535 whole entry): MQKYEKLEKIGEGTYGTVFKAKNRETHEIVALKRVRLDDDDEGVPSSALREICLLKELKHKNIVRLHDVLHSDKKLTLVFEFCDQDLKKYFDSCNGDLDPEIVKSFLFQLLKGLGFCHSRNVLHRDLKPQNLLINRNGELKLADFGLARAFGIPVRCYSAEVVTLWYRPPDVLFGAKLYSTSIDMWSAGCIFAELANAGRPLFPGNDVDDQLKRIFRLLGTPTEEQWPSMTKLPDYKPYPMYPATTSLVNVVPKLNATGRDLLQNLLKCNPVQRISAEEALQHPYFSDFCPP
T2 sequence (Q15078 108-307 partner limits assumed): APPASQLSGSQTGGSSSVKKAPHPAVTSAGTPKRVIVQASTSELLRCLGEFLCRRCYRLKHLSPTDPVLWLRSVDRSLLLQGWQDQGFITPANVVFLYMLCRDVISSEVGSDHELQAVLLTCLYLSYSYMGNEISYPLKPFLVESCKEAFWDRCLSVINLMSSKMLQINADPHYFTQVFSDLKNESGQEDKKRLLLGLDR

Take `Cn1nc([N+](=O)[O-])c2c(C3C(=O)Nc4ccc(C#N)cc43)ncnc21` (stereo not drawn) [Example 148, 3-(1-Methyl-3-nitro-1H-pyrazolo[3,4-d]pyrimidin-4-yl)-2-oxo-2,3-dihydro-1H-indole-5-carbonitrile]: the melting point was > 300 °C (dec.). The IC50 at His6-GSK-3β (class symbols) was above 10000 nM. Moreover, at CDK5/GST-p25 (class symbols), the IC50 was above 10000 nM.
`CN(C)CCCNc1nc(C2C(=O)Nc3ccc(Cl)cc32)c2cn(C3CCCC3)nc2n1` (stereo not drawn) [Example 377, 5-Chloro-3-[2-cyclopentyl-6-(3-dimethylamino-propylamino)-2H-pyrazolo [3,4-d]pyrimidin-4-yl]-1,3-dihydro-indol-2-one] yielded a melting point of 176 to 179 °C. Moreover, on His6-GSK-3β (class symbols), the IC50 fell in the range of 300 to 3000 nM. In addition, on CDK5/GST-p25 (class symbols), the IC50 was above 10000 nM.
For the compound `O=C1Nc2ccccc2C1c1nc(NCCCN2CCOCC2)nc2nn(C3CCCC3)cc12` (stereo not drawn) [Example 157, 3-[2-cyclopentyl-6-(3-morpholin-4-yl-propylamino)-2H-pyrazolo[3,4-d]pyrimidin-4-yl]-1,3-dihydro-indol-2-one], the melting point is 242 to 245 °C. The half-inhibitory concentration (IC50) on His6-GSK-3β (class symbols) lay within 300 to 3000 nM. Besides, the IC50 on CDK5/GST-p25 (numeric bounds) was above 3000 nM.
Take `O=C1Nc2c(F)cc(F)cc2C1c1ncnc2c1cnn2C1CCCC1` (stereo not drawn) [Example 61, 3-(1-cyclopentyl-1H-pyrazolo[3,4-d]pyrimidin-4-yl)-5,7-difluoro-1,3-dihydro-indol-2-one]: the melting point was above 300 °C. For the same compound, the half-maximal inhibitory concentration (IC50) on His6-GSK-3β (class symbols) is above 10000 nM. For the same compound, the IC50 at CDK5/GST-p25 (class symbols) was above 10000 nM.
For the compound `CCOCCn1cc2c(C3C(=O)Nc4ccc(Br)cc43)nc(NC[C@H](C)O)nc2n1` (stereo partly drawn) [Example 238, 5-Bromo-3-[2-(2-ethoxy-ethyl)-6-((S)-2-hydroxy-propylamno)-2H-pyrazolo[3,4-d]pyrimidin-4-yl]-1,3-dihydro-indol-2-one], the melting point lay in the range of 297 to 299 °C. Besides, the IC50 at His6-GSK-3β (class symbols) was below 300 nM. At CDK5/GST-p25 (class symbols), this compound registered an IC50 below 300 nM.
As for `CNCCCNc1nc(C2C(=O)Nc3ccc(Br)cc32)c2cn(CC(C)C)nc2n1` (stereo not drawn) [Example 267, 5-Bromo-3-[2-isobutyl-6-(3-methylamino-propylamino)-2H-pyrazolo[3,4-d]pyrimidin-4-yl]-1,3-dihydro-indol-2-one], the melting point fell in the range of 240 to 259 °C. Also, the IC50 on His6-GSK-3β (class symbols) is below 300 nM. This compound came in with an IC50 at CDK5/GST-p25 (class symbols) below 300 nM.
Compound `CCCn1cc2c(C3C(=O)Nc4ccc(Br)cc43)nc(NCCc3ccccn3)nc2n1` (stereo not drawn) [Example 191, 5-Bromo-3-[2-propyl-6-(2-pyridin-2-yl-ethylamino)-2H-pyrazolo [3,4-d]pyrimidin-4-yl]-1,3-dihydro-indol-2-one] came in with a melting point of 283 to 291 °C. In addition, on His6-GSK-3β (class symbols), the concentration for half-maximal inhibition (IC50) is below 300 nM. For the same compound, the IC50 at CDK5/GST-p25 (class symbols) was below 300 nM.
On to `O=C1Nc2ccc(Br)cc2C1c1ncnc2c1cnn2C1CCCC1` (stereo not drawn) [Example 54, 5-Bromo-3-(1-cyclopentyl-1H-pyrazolo[3,4-d]pyrimidin-4-yl)-1,3-dihydro-indol-2-one], for which the melting point lay within 287 to 290 °C. In addition, the IC50 at His6-GSK-3β (class symbols) was above 10000 nM. For the same compound, the IC50 against CDK5/GST-p25 (numeric bounds) was above 3000 nM.
For the compound `CN(C)CCCNc1nc(C2C(=O)Nc3ccc(Br)cc32)c2cn(C)nc2n1` (stereo not drawn) [Example 307, 5-Bromo-3-[6-(3-dimethylamino-propylamino)-2-methyl-2H-pyrazolo[3,4-d]pyrimidin-4-yl]-1,3-dihydro-indol-2-one], the melting point was 310 to 312 °C (dec.). Also, the IC50 on His6-GSK-3β (class symbols) was 300 to 3000 nM. Further, the IC50 on CDK5/GST-p25 (class symbols) was 300 to 3000 nM.
Regarding `CCCn1cc2c(C3C(=O)Nc4ccc(C#N)cc43)nc(NCc3ccncc3)nc2n1` (stereo not drawn) [Example 186, 2-Oxo-3-{2-propyl-6-[(pyridine-4-ylmethyl)-amino]-2H-pyrazolo [3,4-d]pyrimidin-4-yl}-2,3-dihydro-1H-indole-5-carbonitrile], the melting point lay within 299 to 302 °C. Also, the IC50 at His6-GSK-3β (class symbols) was below 300 nM. Besides, the IC50 against CDK5/GST-p25 (class symbols) was below 300 nM.
On to `CN(C)CCCNc1nc(C2C(=O)Nc3ccc(Br)cc32)c2cn(C3CCCC3)nc2n1` (stereo not drawn) [Example 371, 5-Bromo-3-[2-cyclopentyl-6-(3-dimethylamino-propylamino)-2H-pyrazolo [3,4-d]pyrimidin-4-yl]-1,3-dihydro-indol-2-one], for which the melting point lay within 198 to 200 °C. In addition, the IC50 at His6-GSK-3β (class symbols) is below 300 nM. Also, the IC50 on CDK5/GST-p25 (numeric bounds) is above 3000 nM.
`O=C1Nc2ccccc2C1c1nc(NCCc2ccccn2)nc2nn(C3CCCC3)cc12` (stereo not drawn) [Example 242, 3-[2-Cyclopentyl-6-(2-pyridin-2-yl-ethylamino)-2H-pyrazolo[3,4-d]pyrimidin-4-yl]-1,3-dihydro-indol-2-one] yielded a melting point of 246 to 248 °C. In addition, the IC50 at His6-GSK-3β (class symbols) was 300 to 3000 nM. Also, 10 µM produced 43% inhibition against CDK5/GST-p25.
`CCCn1cc2c(C3C(=O)Nc4ccc(Br)cc43)nc(NC[C@@H](C)N)nc2n1` (stereo partly drawn) [Example 369, 3-[6-(2-(R)-Amino-propylamino)-2-propyl-2H-pyrazolo[3,4-d]pyrimidin-4-yl]-5-bromo-1,3-dihydro-indol-2-one] registered a melting point of 247 to 250 °C. In addition, the IC50 on His6-GSK-3β (class symbols) was below 300 nM. At CDK5/GST-p25 (class symbols), this compound displayed an IC50 of 300 to 3000 nM.
Turning to `CCCn1cc2c(C3C(=O)Nc4ccc(Br)cc43)nc(NC[C@@H](C)O)nc2n1` (stereo partly drawn) [Example 195, 5-Bromo-3-[6-((R)-2-hydroxy-propylamino)-2-propyl-2H-pyrazolo [3,4-d]pyrimidin-4-yl]-1,3-dihydro-indol-2-one], the melting point was 310 °C (dec.). Further, the IC50 at His6-GSK-3β (class symbols) is below 300 nM. The compound also came in with an IC50 on CDK5/GST-p25 (class symbols) below 300 nM.
As for `O=C1Nc2cc(Cl)ccc2C1c1ncnc2nn(C3CCCC3)cc12` (stereo not drawn) [Example 32, 6-Chloro-3-(2-Cyclopentyl-2H-pyrazolo [3,4-d]pyrimidin-4-yl)-2-oxo-1,3-dihydro-indol-2-one], the melting point lay in the range of 294 to 296 °C. Also, the IC50 on His6-GSK-3β (numeric bounds) was above 3000 nM. The 50% inhibitory concentration (IC50) against CDK5/GST-p25 (class symbols) lay within 300 to 3000 nM.
`N#Cc1cccc2c1NC(=O)C2c1ncnc2c1cnn2C1CCCC1` (stereo not drawn) [Example 64, 3-(1-Cyclopentyl-1H-pyrazolo [3,4-d]pyrimidin-4-yl)-2-oxo-2,3-dihydro-1H-indole-7-carbonitrile] registered a melting point of 327 to 332 °C. The IC50 at His6-GSK-3β (class symbols) was above 10000 nM. This compound gave an IC50 against CDK5/GST-p25 (class symbols) above 10000 nM.
As to `CCCn1cc2c(C3C(=O)Nc4ccc(Br)cc43)nc(NC[C@H](C)O)nc2n1` (stereo partly drawn) [Example 194, 5-Bromo-3-[6-((S)-2-hydroxy-propylamino)-2-propyl-2H-pyrazolo[3,4-d]pyrimidin-4-yl]-1,3-dihydro-indol-2-one], the melting point lay in the range of 322 to 326 °C. The IC50 on His6-GSK-3β (class symbols) is below 300 nM. Further, the IC50 against CDK5/GST-p25 (class symbols) was below 300 nM.
The compound `O=C1Nc2ccc(C(F)(F)F)cc2C1c1nc(NCCc2ccccn2)nc2nn(C3CCCC3)cc12` (stereo not drawn) [Example 247, 3-[2-Cyclopentyl-6-(2-pyridin-2-yl-ethylamino)-2H-pyrazolo[3,4-d]pyrimidin-4-yl]-5-trifluoromethyl-1,3-dihydro-indol-2-one] had a melting point above 300 °C. In addition, the half-inhibitory concentration (IC50) at His6-GSK-3β (class symbols) was below 300 nM. Also, the IC50 against CDK5/GST-p25 (class symbols) is above 10000 nM.
For `O=C1Nc2ccc([N+](=O)[O-])cc2C1c1ncnc2nn(C3CCCCC3)cc12` (stereo not drawn) [Example 49, 3-(2-Cyclohexyl-2H-pyrazolo[3,4-d]pyrimidin-4-yl)-5-nitro-1,3-dihydroindol-2-one], the melting point was in the range of 301 to 304 °C. Also, the concentration for half-maximal inhibition (IC50) at His6-GSK-3β (class symbols) is below 300 nM. This compound also showed an IC50 on CDK5/GST-p25 (class symbols) below 300 nM.
In turn, `CCCn1cc2c(C3C(=O)Nc4ccc(Br)cc43)nc(NCCCN3CCOCC3)nc2n1` (stereo not drawn) [Example 203, 5-Bromo-3-[6-(3-morpholin-4-yl-propylamino)-2-propyl-2H-pyrazolo [3,4-d]pyrimidin-4-yl]-1,3-dihydro-indol-2-one] gave a melting point of 298 to 303 °C. Also, at His6-GSK-3β (class symbols), the IC50 was below 300 nM. This compound returned an IC50 against CDK5/GST-p25 (class symbols) below 300 nM.
`O=C1Nc2ccc(C(F)(F)F)cc2C1c1nc(NCCCN2CCOCC2)nc2nn(C3CCCC3)cc12` (stereo not drawn) [Example 162, 3-[2-cyclopentyl-6-(3-morpholin-4-yl-propylamino)-2H-pyrazolo [3,4-d]pyrimidin-4-yl]-5-trifluoromethyl-1,3-dihydro-indol-2-one] registered a melting point of 288 to 291 °C. The IC50 at His6-GSK-3β (class symbols) is below 300 nM. Also, at CDK5/GST-p25 (numeric bounds), the IC50 is above 1000 nM.
In the case of `COCCn1cc2c(C3C(=O)Nc4ccc(Br)cc43)nc(NCCN(C)C)nc2n1` (stereo not drawn) [Example 229, 5-Bromo-3-[6-(2-dimethylamino-ethylamino)-2-(2-methoxy-ethyl)-2H-pyrazolo[3,4-d]pyrimdin-4-yl]-1,3-dihydro-indol-2-one], the melting point lay within 291 to 292 °C. Also, at His6-GSK-3β (class symbols), the IC50 lay in the range of 300 to 3000 nM. For the same compound, the IC50 at CDK5/GST-p25 (class symbols) is 300 to 3000 nM.
The compound `COCCn1cc2c(C3C(=O)Nc4ccc(Br)cc43)nc(NC[C@H](C)O)nc2n1` (stereo partly drawn) [Example 230, 5-Bromo-3-[6((S)-2-hydroxy-propylamino)-2-(2-methoxy-ethyl)-2H-pyrazolo [3,4-d]pyrimidin-4-yl]-1,3-dihydro-indol-2-one] returned a melting point above 300 °C. For the same compound, the IC50 at His6-GSK-3β (class symbols) was below 300 nM. In addition, the IC50 against CDK5/GST-p25 (class symbols) is below 300 nM.
`O=C1Nc2ccc(F)cc2C1c1ncnc2nn(C3CCCC3)cc12` (stereo not drawn) [Example 40, 3-(2-Cyclopentyl-2H-pyrazolo[3,4-d]pyrimidin-4-yl)-5-fluoro-1,3-dihydro-indol-2-one] came in with a melting point of 256 to 260 °C. At His6-GSK-3β (class symbols), the IC50 was 300 to 3000 nM. Further, the IC50 against CDK5/GST-p25 (class symbols) was below 300 nM.
